Experimental data: ChEMBL document CHEMBL4680347, “Discovery of novel 1,3,5-triazine derivatives as potent inhibitor of cervical cancer via dual inhibition of PI3K/mTOR” (Bioorg Med Chem, 2021)
One block for each molecule: values may come before it. Activity calls are given as the source filed them. The rule behind the calls is not given here.

Experiments:
[1] = biological target: Phosphatidylinositol 4,5-bisphosphate 3-kinase catalytic subunit alpha isoform (Homo sapiens, UniProt P42336); experiment: Inhibition of PI3Kalpha (unknown origin) measured after 1 hr by ADP-glo plus luminescence assay
[2] = biological target: Serine/threonine-protein kinase mTOR (Homo sapiens, UniProt P42345); experiment: Inhibition of mTOR (unknown origin) measured after 45 mins by LANCE Ultra assay
[3] = tested on: HeLa; experiment: Induction of cell cycle arrest in human HeLa cells assessed as accumulation at G2 phase at 12 uM after 24 hrs by RNase A/PI-staining based flow cytometric analysis (reference value: 30.62%); assay type: functional
[4] = biological target: Phosphatidylinositol 4,5-bisphosphate 3-kinase catalytic subunit gamma isoform (Homo sapiens, UniProt P48736); experiment: Inhibition of PI3Kgamma (unknown origin) measured after 1 hr by ADP-glo plus luminescence assay
[5] = tested on: HeLa; experiment: Induction of cell cycle arrest in human HeLa cells assessed as accumulation at G1 phase at 12 uM after 24 hrs by RNase A/PI-staining based flow cytometric analysis (reference value: 52.21%); assay type: functional
[6] = tested on: HeLa; experiment: Induction of apoptosis in human HeLa cells assessed as early apoptotic cells at 8 uM measured after 24 hrs by Annexin-V/FITC and propidium iodide staining based flow cytometry (reference value: 1.60%); assay type: functional
[7] = tested on: HeLa; experiment: Induction of apoptosis in human HeLa cells assessed as reduction in BAX level upto 12 uM by Western blot analysis; assay type: functional, cell-based; conditions: dose microM <=12
[8] = tested on: HeLa; experiment: Induction of apoptosis in human HeLa cells assessed as late apoptotic cells at 4 uM measured after 24 hrs by Annexin-V/FITC and propidium iodide staining based flow cytometry (reference value: 3.4%); assay type: functional
[9] = tested on: Mus musculus; experiment: Reduction in p-mTOR levels in BALB/c mouse tumor xenografted with human HeLa cells at 5 to 15 mg/kg, po by Western blot analysis; assay type: functional, organism-based; conditions: Neoplasm, dose 5-15 mg/kg
[10] = tested on: Mus musculus; experiment: Reduction in p-AKT levels in BALB/c mouse tumor xenografted with human HeLa cells at 5 to 15 mg/kg, po by Western blot analysis; assay type: functional, organism-based; conditions: Neoplasm, dose 5-15 mg/kg
[11] = tested on: HeLa; experiment: Induction of cell cycle arrest in human HeLa cells assessed as accumulation at G1 phase at 8 uM after 24 hrs by RNase A/PI-staining based flow cytometric analysis (reference value: 52.21%); assay type: functional
[12] = tested on: HeLa; experiment: Induction of cell cycle arrest in human HeLa cells assessed as accumulation at S phase at 4 uM after 24 hrs by RNase A/PI-staining based flow cytometric analysis (reference value: 17.17%); assay type: functional
[13] = tested on: HeLa; experiment: Induction of cell cycle arrest in human HeLa cells assessed as accumulation at G2 phase at 8 uM after 24 hrs by RNase A/PI-staining based flow cytometric analysis (reference value: 30.62%); assay type: functional
[14] = tested on: HeLa; experiment: Induction of apoptosis in human HeLa cells assessed as increase in Bcl-2 level upto 12 uM by Western blot analysis; assay type: functional, cell-based; conditions: dose microM <=12
[15] = tested on: HeLa; experiment: Induction of apoptosis in human HeLa cells at 4 to 12 uM incubated for 48 hrs by Hoechst 33342 staining based fluorescence microscopy; assay type: functional, cell-based; conditions: dose 4-12 µM
[16] = tested on: HeLa; experiment: Antitumor activity against human HeLa cells xenografted in orally dosed BALB/c mouse assessed as reduction in tumor volume measured for 24 days; assay type: functional, organism-based; conditions: dose 5-15 mg/kg, time 24.0 day
[17] = biological target: T1, Phosphatidylinositol 4,5-bisphosphate 3-kinase catalytic subunit delta isoform (Homo sapiens, UniProt O00329); experiment: Inhibition of PI3Kdelta (unknown origin) measured after 1 hr by ADP-glo plus luminescence assay
T1 sequence (O00329 whole entry): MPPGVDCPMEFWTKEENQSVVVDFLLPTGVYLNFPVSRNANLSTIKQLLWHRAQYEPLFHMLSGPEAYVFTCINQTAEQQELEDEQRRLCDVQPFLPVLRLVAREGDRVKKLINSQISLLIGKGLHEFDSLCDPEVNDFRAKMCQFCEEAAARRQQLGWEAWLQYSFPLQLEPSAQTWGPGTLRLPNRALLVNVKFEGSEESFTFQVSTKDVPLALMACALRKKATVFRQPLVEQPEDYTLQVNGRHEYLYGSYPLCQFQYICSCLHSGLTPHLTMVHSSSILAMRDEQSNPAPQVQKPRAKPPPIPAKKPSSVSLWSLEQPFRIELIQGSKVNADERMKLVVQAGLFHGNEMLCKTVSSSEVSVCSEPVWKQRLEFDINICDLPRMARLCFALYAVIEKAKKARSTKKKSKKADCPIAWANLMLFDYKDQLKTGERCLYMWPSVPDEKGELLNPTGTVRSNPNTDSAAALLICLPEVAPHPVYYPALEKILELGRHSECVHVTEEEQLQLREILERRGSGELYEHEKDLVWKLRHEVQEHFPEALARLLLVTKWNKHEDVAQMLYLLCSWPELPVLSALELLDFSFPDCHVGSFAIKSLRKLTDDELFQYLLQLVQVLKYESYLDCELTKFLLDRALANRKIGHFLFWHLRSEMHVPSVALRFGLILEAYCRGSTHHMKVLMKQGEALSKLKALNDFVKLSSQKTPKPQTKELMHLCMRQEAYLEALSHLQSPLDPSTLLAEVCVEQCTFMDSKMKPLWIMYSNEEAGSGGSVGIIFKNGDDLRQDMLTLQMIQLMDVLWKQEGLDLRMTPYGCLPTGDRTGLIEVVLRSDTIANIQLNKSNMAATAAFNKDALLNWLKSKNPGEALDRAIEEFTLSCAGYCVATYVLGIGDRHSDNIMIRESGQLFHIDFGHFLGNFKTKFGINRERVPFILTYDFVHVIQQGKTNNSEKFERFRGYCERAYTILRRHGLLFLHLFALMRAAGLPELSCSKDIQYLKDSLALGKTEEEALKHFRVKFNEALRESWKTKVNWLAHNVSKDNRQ

[18] = biological target: Phosphatidylinositol 4,5-bisphosphate 3-kinase catalytic subunit beta isoform (Homo sapiens, UniProt P42338); experiment: Inhibition of PI3Kbeta (unknown origin) measured after 1 hr by ADP-glo plus luminescence assay
[19] = tested on: HeLa; experiment: Antitumor activity against human HeLa cells xenografted in orally dosed BALB/c mouse assessed as reduction in tumor weight measured for 24 days; assay type: functional, organism-based; conditions: dose 5-15 mg/kg, time 24.0 day
[20] = tested on: HeLa; experiment: Inhibition of PI3K/AKT pathway in human HeLa cells assessed as reduction phosphorylated PI3K level upto 12 uM by Western blot analysis; assay type: cell-based; conditions: dose microM <=12
[21] = tested on: HeLa; experiment: Antiproliferative activity against human HeLa cells assessed as reduction in cell viability incubated for 24 to 72 hr by MTT assay; assay type: functional, cell-based; conditions: dose microM <=12, time 24-72 hrs
[22] = tested on: Mus musculus; experiment: Reduction in p-PI3K levels in BALB/c mouse tumor xenografted with human HeLa cells at 5 to 15 mg/kg, po by Western blot analysis; assay type: functional, organism-based; conditions: Neoplasm, dose 5-15 mg/kg
[23] = tested on: HeLa; experiment: Induction of apoptosis in human HeLa cells assessed as late apoptotic cells at 12 uM measured after 24 hrs by Annexin-V/FITC and propidium iodide staining based flow cytometry (reference value: 3.4%); assay type: functional
[24] = tested on: MCF7; experiment: Anticancer activity against human MCF-7 cells assessed as inhibition of cell proliferation measured after 48 hrs by MTT assay; assay type: functional, cell-based; conditions: MCF7, 48 h
[25] = tested on: HeLa; experiment: Induction of cell cycle arrest in human HeLa cells assessed as accumulation at S phase at 12 uM after 24 hrs by RNase A/PI-staining based flow cytometric analysis (reference value: 17.17%); assay type: functional
[26] = tested on: HeLa; experiment: Inhibition of cell migration in human HeLa cells incubated for 72 hrs by wound healing assay; assay type: functional, cell-based; conditions: dose 4-12 µM
[27] = tested on: HeLa; experiment: Inhibition of cell invasion in human HeLa cells incubated for 24 hrs by crystal violet staining based transwell assay; assay type: functional; conditions: dose 4-12 µM
[28] = tested on: HeLa; experiment: Antiproliferative activity against human HeLa cells assessed as reduction in cell viability measured upto 12 uM by MTT assay; assay type: functional, cell-based; conditions: dose microM <=12, time 24-72 hrs, TDE = time-dependent effect
[29] = tested on: MDA-MB-231; experiment: Anticancer activity against human […] cells assessed as inhibition of cell proliferation measured after 48 hrs by MTT assay; assay type: functional, cell-based; conditions: MDA-MB-231, 48 h
[30] = tested on: HeLa; experiment: Induction of apoptosis in human HeLa cells assessed as early apoptotic cells at 4 uM measured after 24 hrs by Annexin-V/FITC and propidium iodide staining based flow cytometry (reference value: 1.60%); assay type: functional
[31] = tested on: HeLa; experiment: Induction of cell cycle arrest in human HeLa cells assessed as accumulation at G1 phase at 4 uM after 24 hrs by RNase A/PI-staining based flow cytometric analysis (reference value: 52.21%); assay type: functional
[32] = tested on: HeLa; experiment: Induction of cell cycle arrest in human HeLa cells assessed as accumulation at G2 phase at 4 uM after 24 hrs by RNase A/PI-staining based flow cytometric analysis (reference value: 30.62%); assay type: functional
[33] = tested on: HeLa; experiment: Inhibition of colony formation in human HeLa cells measured after 24 hrs by crystal violet staining based colony formation assay; assay type: functional, cell-based; conditions: dose 4-12 µM
[34] = tested on: HeLa; experiment: Induction of apoptosis in human HeLa cells assessed as early apoptotic cells at 12 uM measured after 24 hrs by Annexin-V/FITC and propidium iodide staining based flow cytometry (reference value: 1.60%); assay type: functional
[35] = tested on: HeLa; experiment: Induction of apoptosis in human HeLa cells assessed as late apoptotic cells at 8 uM measured after 24 hrs by Annexin-V/FITC and propidium iodide staining based flow cytometry (reference value: 3.4%); assay type: functional
[36] = tested on: HeLa; experiment: Induction of cell cycle arrest in human HeLa cells assessed as accumulation at S phase at 8 uM after 24 hrs by RNase A/PI-staining based flow cytometric analysis (reference value: 17.17%); assay type: functional
[37] = tested on: HeLa; experiment: Inhibition of PI3K/AKT pathway in human HeLa cells assessed as reduction phosphorylated Akt level upto 12 uM by Western blot analysis; assay type: cell-based; conditions: dose microM <=12
[38] = tested on: HeLa; experiment: Anticancer activity against human HeLa cells assessed as inhibition of cell proliferation measured after 48 hrs by MTT assay; assay type: functional, cell-based
[39] = tested on: HepG2; experiment: Anticancer activity against human HepG2 cells assessed as inhibition of cell proliferation measured after 48 hrs by MTT assay; assay type: functional, cell-based; conditions: HepG2, 48 h

Chain of Phosphatidylinositol 4,5-bisphosphate 3-kinase catalytic subunit alpha isoform (P42336 whole entry, canonical isoform): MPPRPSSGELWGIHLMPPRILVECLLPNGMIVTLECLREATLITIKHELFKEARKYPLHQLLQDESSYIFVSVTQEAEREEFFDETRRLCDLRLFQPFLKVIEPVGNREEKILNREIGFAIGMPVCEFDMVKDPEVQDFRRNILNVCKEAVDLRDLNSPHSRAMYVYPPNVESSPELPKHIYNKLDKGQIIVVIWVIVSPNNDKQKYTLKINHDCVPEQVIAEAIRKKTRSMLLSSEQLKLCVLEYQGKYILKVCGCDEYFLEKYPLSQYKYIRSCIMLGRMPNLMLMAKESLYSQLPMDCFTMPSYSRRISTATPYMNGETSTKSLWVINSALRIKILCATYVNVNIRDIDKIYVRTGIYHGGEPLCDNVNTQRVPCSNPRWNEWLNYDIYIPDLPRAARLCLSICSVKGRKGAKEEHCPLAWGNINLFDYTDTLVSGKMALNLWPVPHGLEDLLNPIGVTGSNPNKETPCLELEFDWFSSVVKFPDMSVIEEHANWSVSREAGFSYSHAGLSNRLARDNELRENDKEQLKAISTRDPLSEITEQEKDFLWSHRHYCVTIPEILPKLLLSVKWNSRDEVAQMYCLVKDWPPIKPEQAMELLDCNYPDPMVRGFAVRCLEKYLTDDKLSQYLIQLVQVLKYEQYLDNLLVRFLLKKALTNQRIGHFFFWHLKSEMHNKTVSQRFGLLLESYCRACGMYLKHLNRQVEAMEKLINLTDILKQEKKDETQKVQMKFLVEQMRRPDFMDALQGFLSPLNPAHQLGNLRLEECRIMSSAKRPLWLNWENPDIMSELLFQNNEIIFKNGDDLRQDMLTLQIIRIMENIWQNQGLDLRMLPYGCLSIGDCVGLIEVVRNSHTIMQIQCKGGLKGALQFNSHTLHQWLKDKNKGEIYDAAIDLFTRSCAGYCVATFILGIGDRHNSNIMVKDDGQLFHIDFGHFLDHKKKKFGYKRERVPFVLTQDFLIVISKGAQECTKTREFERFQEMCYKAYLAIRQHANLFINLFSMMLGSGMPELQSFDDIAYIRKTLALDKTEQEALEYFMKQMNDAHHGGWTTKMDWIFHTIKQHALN
Chain of Phosphatidylinositol 4,5-bisphosphate 3-kinase catalytic subunit gamma isoform (P48736 whole entry, canonical isoform): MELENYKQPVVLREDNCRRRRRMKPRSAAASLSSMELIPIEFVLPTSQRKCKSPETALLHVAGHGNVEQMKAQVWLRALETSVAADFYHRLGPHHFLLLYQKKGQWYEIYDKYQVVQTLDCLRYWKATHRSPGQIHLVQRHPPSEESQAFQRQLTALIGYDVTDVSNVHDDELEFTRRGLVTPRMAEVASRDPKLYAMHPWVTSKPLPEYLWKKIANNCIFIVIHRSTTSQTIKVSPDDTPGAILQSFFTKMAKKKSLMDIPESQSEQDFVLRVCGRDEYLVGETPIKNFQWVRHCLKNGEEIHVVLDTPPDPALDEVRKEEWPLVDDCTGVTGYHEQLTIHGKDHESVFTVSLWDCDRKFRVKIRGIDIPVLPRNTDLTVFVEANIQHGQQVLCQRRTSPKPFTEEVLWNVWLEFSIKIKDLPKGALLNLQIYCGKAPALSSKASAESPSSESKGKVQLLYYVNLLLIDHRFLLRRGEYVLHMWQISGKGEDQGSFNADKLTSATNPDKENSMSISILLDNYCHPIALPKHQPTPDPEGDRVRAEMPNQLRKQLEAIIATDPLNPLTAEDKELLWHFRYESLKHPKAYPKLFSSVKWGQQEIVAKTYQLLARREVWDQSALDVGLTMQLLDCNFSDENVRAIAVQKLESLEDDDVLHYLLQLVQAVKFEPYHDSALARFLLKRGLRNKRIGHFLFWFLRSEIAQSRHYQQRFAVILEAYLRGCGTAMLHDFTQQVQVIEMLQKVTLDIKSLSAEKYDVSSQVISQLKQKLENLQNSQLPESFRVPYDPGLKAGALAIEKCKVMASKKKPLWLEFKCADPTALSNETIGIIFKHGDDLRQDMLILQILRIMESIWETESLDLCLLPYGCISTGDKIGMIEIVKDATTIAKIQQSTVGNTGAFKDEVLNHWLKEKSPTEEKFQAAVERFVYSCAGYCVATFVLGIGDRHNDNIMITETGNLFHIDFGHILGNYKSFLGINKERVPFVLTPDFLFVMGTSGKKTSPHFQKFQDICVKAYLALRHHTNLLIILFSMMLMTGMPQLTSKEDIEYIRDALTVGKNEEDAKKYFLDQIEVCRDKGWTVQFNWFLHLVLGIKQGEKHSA
Chain of Phosphatidylinositol 4,5-bisphosphate 3-kinase catalytic subunit beta isoform (P42338 whole entry, canonical isoform): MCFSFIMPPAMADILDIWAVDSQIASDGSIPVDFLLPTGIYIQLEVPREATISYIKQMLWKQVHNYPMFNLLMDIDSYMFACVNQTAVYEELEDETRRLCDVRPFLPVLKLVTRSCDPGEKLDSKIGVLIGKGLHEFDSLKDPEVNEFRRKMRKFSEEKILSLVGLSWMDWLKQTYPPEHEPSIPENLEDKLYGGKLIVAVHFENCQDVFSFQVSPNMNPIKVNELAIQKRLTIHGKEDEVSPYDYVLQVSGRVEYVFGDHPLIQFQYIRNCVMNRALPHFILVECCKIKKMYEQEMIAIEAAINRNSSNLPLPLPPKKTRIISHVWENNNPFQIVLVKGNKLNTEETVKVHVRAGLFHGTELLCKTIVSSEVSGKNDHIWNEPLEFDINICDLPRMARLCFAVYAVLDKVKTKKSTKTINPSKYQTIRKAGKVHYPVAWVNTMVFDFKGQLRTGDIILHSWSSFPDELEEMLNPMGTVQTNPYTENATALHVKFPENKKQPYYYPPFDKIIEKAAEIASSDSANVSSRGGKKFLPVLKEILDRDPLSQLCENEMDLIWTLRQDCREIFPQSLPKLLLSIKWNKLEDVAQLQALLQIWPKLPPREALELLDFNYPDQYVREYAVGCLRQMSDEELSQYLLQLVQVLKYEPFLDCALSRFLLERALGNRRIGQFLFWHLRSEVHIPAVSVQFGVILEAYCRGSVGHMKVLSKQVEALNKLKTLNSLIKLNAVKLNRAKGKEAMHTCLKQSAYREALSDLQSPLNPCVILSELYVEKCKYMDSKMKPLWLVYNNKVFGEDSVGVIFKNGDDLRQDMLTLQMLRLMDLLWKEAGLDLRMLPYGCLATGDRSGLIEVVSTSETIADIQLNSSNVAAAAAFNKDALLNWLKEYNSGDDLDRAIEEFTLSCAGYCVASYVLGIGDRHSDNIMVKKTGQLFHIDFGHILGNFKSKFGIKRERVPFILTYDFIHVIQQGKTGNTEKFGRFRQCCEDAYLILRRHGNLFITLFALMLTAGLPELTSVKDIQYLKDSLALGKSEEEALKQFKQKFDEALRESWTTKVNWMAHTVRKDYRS

Compound: Cc1cccc(S(=O)(=O)N2CCN(c3nc(NCCN4CCOCC4)nc(N4CCOCC4)n3)CC2)c1
IC50 [1]: 0.0187 µM

Compound: O=S(=O)(c1ccccc1)N1CCN(c2nc(NCCN3CCOCC3)nc(N3CCOCC3)n2)CC1
IC50 [2]: 0.0704 µM
IC50 [1]: 0.0406 µM

Compound: O=S(=O)(c1ccc(O)cc1)N1CCN(c2nc(NCCN3CCOCC3)nc(N3CCOCC3)n2)CC1
Activity [3]: 14.32%
IC50 [4]: 0.0246 µM
Activity [5]: 75.03%
Activity [6]: 1.84%
Activity [7]: Active
Activity [8]: 5.07%
inhibition [9]: Active
inhibition [10]: Active
IC50 [2]: 0.00845 µM
Activity [11]: 20.38%
IC50 [1]: 0.00341 µM
Activity [12]: 20.44%
Activity [13]: 15.43%
Activity [14]: Active
Activity [15]: Active
Activity [16]: Dose-dependent effect
IC50 [17]: 0.0353 µM
IC50 [18]: 0.0123 µM
Activity [19]: Dose-dependent effect
inhibition [20]: Dose-dependent effect
Activity [21]: Dose-dependent effect
inhibition [22]: Active
Activity [23]: 17.98%
IC50 [24]: 16.3 µM
Activity [25]: 10.65%
Activity [26]: Dose-dependent effect
Activity [27]: Dose-dependent effect
Activity [28]: Tde
IC50 [29]: 15.8 µM
Activity [30]: 2.71%
Activity [31]: 59.18%
Activity [32]: 20.38%
Activity [33]: Dose-dependent effect
Activity [34]: 2.1%
Activity [35]: 16.94%
Activity [36]: 19.52%
inhibition [37]: Active
IC50 [38]: 2.21 µM
IC50 [39]: 12.2 µM

Compound: O=S(=O)(c1cccc(F)c1)N1CCN(c2nc(NCCN3CCOCC3)nc(N3CCOCC3)n2)CC1
IC50 [2]: 0.0937 µM
IC50 [1]: 0.11 µM

Compound: O=S(=O)(c1ccccc1O)N1CCN(c2nc(NCCN3CCOCC3)nc(N3CCOCC3)n2)CC1
IC50 [2]: 0.0325 µM
IC50 [1]: 0.0213 µM

Compound: O=S(=O)(c1cccc(O)c1)N1CCN(c2nc(NCCN3CCOCC3)nc(N3CCOCC3)n2)CC1
IC50 [2]: 0.0218 µM
IC50 [1]: 0.0156 µM

The next lines start with the values.

IC50 [2]: 0.0282 µM
IC50 [1]: 0.0309 µM
Compound: O=S(=O)(c1ccc(Cl)cc1)N1CCN(c2nc(NCCN3CCOCC3)nc(N3CCOCC3)n2)CC1

IC50 [2]: 0.0768 µM
IC50 [1]: 0.0389 µM
Compound: O=[N+]([O-])c1cccc(S(=O)(=O)N2CCN(c3nc(NCCN4CCOCC4)nc(N4CCOCC4)n3)CC2)c1

IC50 [2]: 0.0255 µM
IC50 [1]: 0.0397 µM
Compound: COc1ccccc1S(=O)(=O)N1CCN(c2nc(NCCN3CCOCC3)nc(N3CCOCC3)n2)CC1

IC50 [2]: 0.0418 µM
IC50 [1]: 0.0336 µM
Compound: O=[N+]([O-])c1ccc(S(=O)(=O)N2CCN(c3nc(NCCN4CCOCC4)nc(N4CCOCC4)n3)CC2)cc1
